Data reported in the supplement of paper PMC11424490.

How the values were obtained:
[1] = system: SW837; assay: relative IC50 of cell viability (CellTiter-Glo); higher = less potent
Description: (§1)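 CellTiter-Glo proliferation assay in KRAS G12C mutant NCI-H2122 (72 h), SW837 (144 h) and NCI-H358 cells in 384-well plates. Monotherapy dose response was fitted with a four-parameter curve after normalisation to DMSO controls (% of control, PoC). IC50 is the relative IC50, averaged over replicates. Bottom is the fitted lower plateau in %PoC; Max.Conc. is the top dose tested.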

[2] = system: NCI-H2122; assay: as above
Description: as §1

[3] = system: SW837; assay: fitted bottom plateau of viability curve, % of DMSO control; higher = less maximal inhibition; extreme values may be limits of the assay
Procedure, shortened: (§2)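 NCI-H2122 (800 cells/well), SW837 and NCI-H358 (500 cells/well) were seeded in 60 µl in 384-well plates. After 24 h, single compounds were dispensed acoustically in dose series and incubated 72 h (NCI-H2122, NCI-H358) or 144 h (SW837). Viability was read by CellTiter-Glo luminescence (15 min shaking, EnVision reader) and normalised to DMSO controls (percent of control). Relative IC50 (averaged over replicates) and the lower plateau come from a four-parameter nonlinear fit.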

[4] = system: NCI-H2122; assay: as above
Procedure, shortened: as §2

Row | SMILES | relative IC50 of cell viability [1] [nM] | relative IC50 of cell viability [2] [nM] | fitted bottom plateau of viability curve [3] [%] | fitted bottom plateau of viability curve [4] [%]
1 | CCc1cnn2c(NCc3ccc[n+]([O-])c3)cc(N3CCCC[C@H]3CCO)nc12 (top concentration tested 1000 nM) | 25.9 | 8.91 | 5.65 | 3.3
2 | Cc1[nH]c(/C=C2\C(=O)Nc3ccc(S(=O)(=O)Cc4c(Cl)cccc4Cl)cc32)c(C)c1C(=O)N1CCC[C@@H]1CN1CCCC1 (top concentration tested 10000 nM) | 2390 | 3030 | 1.78 | 0.553
3 | NC(=O)c1cnc(N[C@@H]2CCCC[C@@H]2N)nc1Nc1cccc(-n2nccn2)c1 (top concentration tested 10000 nM) | 2110 | 3860 | 30.9 | 39.3
4 | COc1cc2cc(c1Cl)N(C)C(=O)C[C@H](OC(=O)C(C)C)[C@]1(C)O[C@@H]1[C@H](C)[C@@H]1C[C@@](O)(NC(=O)O1)[C@H](OC)/C=C/C=C(\C)C2 [Ansamitocin P3] (top concentration tested 99.976 nM) | 0.162 | 0.0585 | 26.7 | 3.79
5 | CO[C@H]1CC[C@H](n2c([C@@H]3CCCC(=O)N3c3ccc(F)c(F)c3)nc3cc(-c4c(C)noc4C)ccc32)CC1 [CCS1477] (top concentration tested 10000 nM) | 1900 |  | 36.9 | 77.8
6 | Nc1nc(Cl)nc2c1ncn2[C@@H]1O[C@H](CO)[C@@H](O)[C@@H]1F [Clofarabine] (top concentration tested 10000 nM) | 1150 | 322 | 13.4 | 23.7
7 | O=C(c1ccc(F)c(F)c1Nc1ccc(I)cc1F)N1CC(O)([C@@H]2CCCCN2)C1 [Cobimetinib] (top concentration tested 999.97 nM) | 178 | 139 | 31.2 | 3.48
8 | Nc1ccn([C@@H]2O[C@H](CO)[C@@H](O)[C@@H]2O)c(=O)n1 [Cytarabin] (top concentration tested 999.93 nM) | 949 | 238 | 0 | 32.3
9 | CC(=O)O[C@@]12CO[C@@H]1C[C@H](O)[C@@]1(C)C(=O)[C@H](O)C3=C(C)[C@@H](OC(=O)[C@H](O)[C@@H](NC(=O)OC(C)(C)C)c4ccccc4)C[C@@](O)([C@@H](OC(=O)c4ccccc4)[C@H]21)C3(C)C [Docetaxel] (top concentration tested 100.01 nM) | 2.73 | 1.68 | 22.5 | 4.04
10 | COc1cccc2c1C(=O)c1c(O)c3c(c(O)c1C2=O)C[C@@](O)(C(=O)CO)C[C@@H]3O[C@H]1C[C@H](N)[C@H](O)[C@H](C)O1 [Doxorubicin] (top concentration tested 1000 nM) | 142 | 207 | 1.81 | 34.5
11 | CN(NC(=O)CC(=O)NN(C)C(=S)c1ccccc1)C(=S)c1ccccc1 [Elesclomol] (top concentration tested 10000 nM) | 39 | 22.7 | 2.84 | 1.27
12 | COc1cc([C@@H]2c3cc4c(cc3[C@@H](O[C@@H]3O[C@@H]5CO[C@@H](C)O[C@H]5[C@H](O)[C@H]3O)[C@H]3COC(=O)[C@H]23)OCO4)cc(OC)c1O [Etoposide] (top concentration tested 10000 nM) | 1340 | 995 | 14.5 | 51.5
13 | CN1CC[C@H](c2c(O)cc(O)c3c(=O)cc(-c4ccccc4Cl)oc23)[C@H](O)C1 [Flavopiridol] (top concentration tested 500.11 nM) | 331 | 149 | 0 | 3.96
14 | N#CN=C(NCCCCCCOc1ccc(Cl)cc1)Nc1ccncc1 [GMX1778] (top concentration tested 9999.9 nM) | 30.6 | 210 | 17.9 | 5.11
15 | CCOC(=O)CCNc1cc(N2CCc3ccccc3CC2)nc(-c2ccccn2)n1 [GSK-J4] (top concentration tested 50000 nM) | 12300 | 64800 | 28.7 | 61.7
16 | CC(C)c1cc(-c2n[nH]c(=O)n2-c2ccc3c(ccn3C)c2)c(O)cc1O [Ganetespib] (top concentration tested 99.888 nM) | 87.1 | 11.2 | 0 | 8.33
17 | Nc1ccn([C@@H]2O[C@H](CO)[C@@H](O)C2(F)F)c(=O)n1 [Gemcitabine] (top concentration tested 99.925 nM) | 12.3 | 7.62 | 18 | 28.4
18 | CC(=O)[C@]1(O)Cc2c(O)c3c(c(O)c2[C@@H](O[C@H]2C[C@H](N)[C@H](O)[C@H](C)O2)C1)C(=O)c1ccccc1C3=O [Idarubicin] (top concentration tested 100.01 nM) | 15.3 | 9.8 | 38.7 | 39.7
19 | O=C(/C=C\n1cnc(-c2cc(C(F)(F)F)cc(C(F)(F)F)c2)n1)NNc1cnccn1 [KPT-330] (top concentration tested 50000 nM) | 7020 |  | 20.6 | 91.8

Row | SMILES | relative IC50 of cell viability [1] [nM] | relative IC50 of cell viability [2] [nM] | fitted bottom plateau of viability curve [3] [%] | fitted bottom plateau of viability curve [4] [%]
20 | Cc1cn(CCN2CCN(c3ccccc3-c3cc(C#N)cc(C(=O)NCCCN4CCCC4)c3)CC2)c2ccccc12 [LLY-507] (top concentration tested 9999.9 nM) | 5600 | 2850 | 0 | 24
21 | COc1cc(Nc2ncc3c(n2)-c2ccc(Cl)cc2C(c2c(F)cccc2OC)=NC3)ccc1C(=O)O [MLN8237] (top concentration tested 999.95 nM) | 943 | 75.9 | 13.6 | 21.5
22 | CN(Cc1cnc2nc(N)nc(N)c2n1)c1ccc(C(=O)N[C@@H](CCC(=O)O)C(=O)O)cc1 [Methotrexate] (top concentration tested 10000 nM) | 57 | 7.98 | 31.9 | 37.4
23 | CO[C@@]12[C@H](COC(N)=O)C3=C(C(=O)C(C)=C(N)C3=O)N1C[C@@H]1N[C@@H]12 [Mitomycin C] (top concentration tested 10000 nM) | 240 | 460 | 0.69 | 2.51
24 | Cn1c(=O)n(-c2ccc(C(C)(C)C#N)cc2)c2c3cc(-c4cnc5ccccc5c4)ccc3ncc21 [NVP-BEZ235] (top concentration tested 999.9 nM) | 153 | 58.5 | 33.2 | 9.96
25 | COC(=O)c1ccc2c(c1)NC(=O)/C2=C(\Nc1ccc(N(C)C(=O)CN2CCN(C)CC2)cc1)c1ccccc1 [Nintedanib] (top concentration tested 10000 nM) | 2240 | 5990 | 8.69 | 50.6
26 | O=C(O)C(=O)O.[NH-][C@@H]1CCCC[C@H]1[NH-].[Pt+2] [Oxaliplatin] (top concentration tested 50000 nM) | 5890 | 9200 | 21 | 31.5
27 | CC(=O)O[C@H]1C(=O)[C@@]2(C)[C@H]([C@H](OC(=O)c3ccccc3)[C@]3(O)C[C@H](OC(=O)[C@H](O)[C@@H](NC(=O)c4ccccc4)c4ccccc4)C(C)=C1C3(C)C)[C@]1(OC(C)=O)CO[C@@H]1C[C@@H]2O [Paclitaxel] (top concentration tested 100.01 nM) | 12.5 | 3.22 | 25.6 | 4.65
28 | Cc1[nH]c2ccccc2c1CCNCc1ccc(/C=C/C(=O)NO)cc1 [Panobinostat] (top concentration tested 99.878 nM) | 20.9 | 16.4 | 0.651 | 11.3
29 | Nc1nc2[nH]cc(CCc3ccc(C(=O)N[C@@H](CCC(=O)O)C(=O)O)cc3)c2c(=O)[nH]1 [Pemetrexed] (top concentration tested 10000 nM) |  | 21.4 | 90.7 | 43.3
30 | Cc1ncc(NC(=O)c2cccc(C(F)(F)F)c2)cc1-c1cnc(OC2CCOCC2)c(N2CCOCC2)c1 [RAF-709] (top concentration tested 10000 nM) |  | 1100 | 87.9 | 11.1
31 | COc1cc(OC)c(/C=C/S(=O)(=O)Cc2ccc(OC)c(NCC(=O)O)c2)c(OC)c1 [Rigosertib] (top concentration tested 1000.1 nM) |  | 123 | 58.2 | 5.86
32 | C/C=C1\NC(=O)[C@H]2CSSCC/C=C/[C@H](CC(=O)N[C@H](C(C)C)C(=O)N2)OC(=O)[C@H](C(C)C)NC1=O [Romidepsin] (top concentration tested 10000 nM) | 76.4 | 5.65 | 0.0763 | 0.385
33 | CCN(CC)CCNC(=O)c1c(C)[nH]c(/C=C2\C(=O)Nc3ccc(F)cc32)c1C [Sunitinib] (top concentration tested 9999.9 nM) |  | 4650 | 59.9 | 31.4
34 | CC(C)C[C@@H](C(=O)N[C@H](C(=O)OC1CCCC1)c1ccccc1)[C@H](O)C(=O)NO [Tosedostat] (top concentration tested 9999.9 nM) |  | 776 | 92.2 | 51.2
35 | COc1cc2c(NC3CCN(C(C)C)CC3)nc(C3CCCCC3)nc2cc1OCCCN1CCCC1 [UNC0638] (top concentration tested 10000 nM) |  | 8590 | 88.9 | 46.7
36 | CS(=O)(=O)c1ccc(-c2cnc(N)c(C(=O)Nc3ccccc3)n2)cc1 [VE-821] (top concentration tested 10000 nM) |  | 2140 | 82.4 | 34.2
37 | O=C(CCCCCCC(=O)Nc1ccccc1)NO [Vorinostat] (top concentration tested 10000 nM) |  | 2440 | 25 | 10.7
38 | COc1cc2nccc(Oc3ccc(NC(=O)C4(C(=O)Nc5ccc(F)cc5)CC4)cc3)c2cc1OC [XL-184] (top concentration tested 9999.9 nM) |  | 8090 | 55.8 | 35.3
